One data set has as its system p53. In words: p53 transcription activity by GFP reporter in HCT116 cells transfected with RGC-mazE-IRES-GFP plasmid. In kind it is cell-based, human.
The next data set relates to p53 target genes. Put plainly: Transcription of p53 target genes, Western blot and semi-quantitative PCR. To be noted: 50 μM, 24 hours, HCT116 p53 WT cells. In kind it is cell-based, human. How it is done:
FIGS. 14A-C are Western blot analyses of p53 (FIG. 14A), p21 (FIG. 14B) and Tubulin (FIG. 14C) of HCT116 cells after treatment with 5FU. HCT116 cells were treated with 50 μM 5FU for 24 hours. Then, total cell lysate was prepared and subjected to Western blot analysis for p53 (FIG. 14A) and p21 (FIG. 14B) analysis. Tubulin (FIG. 14C) was used as a loading control and in the analyses of both proteins for normalization.
FIGS. 15A-B depict mRNA levels of various transcripts following treatment of HCT116 cells with 5FU. HCT116 cells were treated with 50 μM 5FU for 24 hours. Then, RNA was prepared and used as a template for cDNA and semi-quantitative PCR was performed for the following transcripts: p21, Bax, Noxa, Puma, MDM2, 14-3-3o, CD95, Btg2, GADD45, and Survivin. The graph represents the quantification of mRNA levels performed using the primers listed in Table 2 in the EXAMPLES section which follows.
Further validation of endogenous p53 activation led the present inventors to test other canonical target genes. 5-FU (50 μM) was added to HCT116 p53 WT cells for 24 hours. Total cell lysate was prepared and subjected into Western blot analysis and at the same time RNA was prepared and used as a template for cDNA and semi-quantitative PCR was performed. […] In particular a tight correlation between p21 and p53 protein levels (FIGS. 14A-C).

As for `O=c1[nH]cc(F)c(=O)[nH]1` [5-FU], the GFP expression result in the data set with p53 (10 μM, compared with Quercetin) is given as “significantly higher expression levels of GFP”. Besides, the “mRNA and protein of p53 target genes” value in the data set with p53 target genes is recorded as “up regulation”. In the data set on HCT116 cells (even very high doses (data not shown)), the cell toxicity result was “no toxicity”.
Take `O=c1c(O)c(-c2ccc(O)c(O)c2)oc2cc(O)cc(O)c12` [Quercetin]: the “increase of GFP expression” value in the data set on p53 (50 μM) was “about 10 folds”. The “cell toxicity (cell death)” value with HCT116 cells (transfected HCT116 cells) is on record as 60%.
